Results on 72 compounds are retold here after PubChem BioAssay AID1996.

Values after ≈ are worked out from the molar mass of the structure shown.

For the data set the following is noted: buffer; pH 7.4; 200.0 µM.
As for `Cc1onc(-c2ccccc2)c1C(=O)NCC(O)c1ccccc1` (configuration not stated), the solubility (kinetic) was > 48.4 µg/mL. As to `COc1ccc(Oc2cccc(Cl)c2CNC(=O)CCC(=O)O)cc1`, the kinetic solubility was found to be 49.5 µg/mL (≈ 136 µM).

`O=C(Nc1ccc(NC(=O)c2cccs2)cc1)c1ccccc1`: the kinetic solubility was < 0.3 µg/mL.

`O=c1cc[nH]c2ccc([N+](=O)[O-])cc12`: the kinetic solubility is > 28.5 µg/mL.

Consider `COC(=O)/C=C1\N/C(=N\c2nc(C)cc(C)n2)N(c2ccccc2)C1=O`, for which the solubility (kinetic) is > 52.7 µg/mL. Turning to `Clc1ccc(Cl)c(OCCN2CCCC2)c1`, the kinetic solubility amounted to 25.4 µg/mL (≈ 97.6 µM).

Turning to `CCOc1ccc(N/C=C/C(=O)c2ccccc2)cc1`, the solubility (kinetic) is 0.8 µg/mL (≈ 2.99 µM). The value for `COc1ccc(S(=O)(=O)Nc2cc3c4c(c2)CC(=O)N4CCC3)cc1` was 50 µg/mL (≈ 140 µM); that for `CCOc1ccc(N2C(=O)CC(NCC3CCCO3)C2=O)cc1` (configuration not stated) was > 47.8 µg/mL; that for `O=C(O)CC(CC(=O)Nc1ccc2ccccc2n1)c1ccccc1` (configuration not stated) was > 50.2 µg/mL.

In the case of `O=C(Oc1c(-c2ccccc2)c(=O)n2c3c(cccc13)CC2)c1ccccc1`, the kinetic solubility is 4.8 µg/mL (≈ 13.1 µM). `CC(=O)Nc1ccc(NC(=O)c2nccnc2C(=O)O)cn1`: the solubility (kinetic) is > 45.2 µg/mL. Then `Cc1cc(=O)[nH]c(SCC(=O)N2CC3(C)CC2CC(C)(C)C3)n1` (configuration not stated), with > 50.3 µg/mL; and `O=C(NCCNc1ccccc1[N+](=O)[O-])c1ccccc1F`, with > 45.5 µg/mL; and `CCc1c(C)nc(SCC(=O)N2CCCCC2)[nH]c1=O`, with > 44.3 µg/mL. The value for `Cc1ccc(C(=O)Nc2nc(-c3ccc(F)cc3)cs2)o1` was 4.4 µg/mL (≈ 14.6 µM); that for `Clc1ccc(CNc2cnccn2)cc1Cl` was > 38.1 µg/mL; that for `COC(=O)Nc1nc(-c2cc(Cl)ccc2Cl)cs1` was < 0.3 µg/mL.

`O=C(O)c1cccc(NC(=O)c2ccccc2NC(=O)c2ccco2)c1`: the solubility (kinetic) was > 52.5 µg/mL. The value for `Cc1cccnc1NC(=O)NC(=O)c1ccc(C(C)(C)C)s1` was 9.1 µg/mL (≈ 28.7 µM). As to `Cc1ccsc1C1C(C#N)=C(N)N(N(C)C)C2=C1C(=O)CCC2` (configuration not stated), the kinetic solubility was > 49.3 µg/mL. `COc1ccc(C(=O)C(C)OC(=O)c2sc(C)nc2C)cc1` (configuration not stated) returned a kinetic solubility of 35.8 µg/mL (≈ 112 µM). Turning to `COc1ccc(C2c3ccc(O)cc3Oc3ncn(CC(C)C)c(=N)c32)cc1` (configuration not stated), the kinetic solubility came out at 53.8 µg/mL (≈ 143 µM). The value for `CCN(CC)c1ccc(NC(=O)c2ccc(S(=O)(=O)N3CCOCC3)cc2)cc1` was 4.7 µg/mL (≈ 11.3 µM); that for `COc1cc(OC)cc(C(=O)Nc2ccc(CN3CCCCC3)cc2)c1` was 49.2 µg/mL (≈ 139 µM); that for `CC(C)c1ccccc1NC(=O)C1C2C=CC(C2)C1C(=O)O` (configuration not stated) was 42.1 µg/mL (≈ 141 µM). `Cc1cnc(C(=O)OCc2ccc(Br)cc2)cn1` returned a solubility (kinetic) of 19 µg/mL (≈ 61.9 µM).

`C[C@]12C=CC(=O)C=C1CC[C@@H]1C2=CC[C@]2(C)[C@@H](C(=O)CN3CCN(c4cc(N5CCCC5)nc(N5CCCC5)n4)CC3)CC[C@@H]12.O=C(O)/C=C\C(=O)O` gave a kinetic solubility of 48.2 µg/mL. With `CCC(=NCC1CCCO1)c1c(O)n(-c2ccccc2C)c(=O)[nH]c1=O` (configuration not stated), the solubility (kinetic) is > 53.6 µg/mL.

With `CCOc1ccccc1NC(=O)Cn1c(=O)oc2cc(Cl)ccc21`, the solubility (kinetic) is 10.5 µg/mL (≈ 30.3 µM). For the compound `CCNc1nc(SCC(N)=O)nc2sc3c(c12)CCN(C)C3`, the solubility (kinetic) is > 50.6 µg/mL.

As for `O=C(O)Cc1ccc2c(c1)N(S(=O)(=O)c1cccs1)CC(C(=O)O)O2` (configuration not stated), the solubility (kinetic) is > 57.5 µg/mL. Then `Fc1ccc(F)c(CNc2ncnc3cc(Cl)ccc23)c1`, with 1.3 µg/mL (≈ 4.25 µM). Then `COc1ccc(OC)c2nc(-c3ccncc3)ccc12`, with > 39.9 µg/mL.

`Fc1ccc(C(CCNCc2cccs2)c2ccco2)cc1` (configuration not stated) yielded a kinetic solubility of 34.2 µg/mL (≈ 108 µM).

For the compound `COc1ccc(CNc2ncnc3ccccc23)cc1`, the solubility (kinetic) was > 39.8 µg/mL. The value for `COc1cc2c(cc1OC)/C(=C/C(=O)c1cccc([N+](=O)[O-])c1)NCC2` was 0.5 µg/mL (≈ 1.41 µM); that for `O=C(c1cc(-c2ccccc2Cl)on1)N1CCCC1` was > 41.5 µg/mL; that for `CNC(=O)c1ccc(NC(=O)CC23CC4CC(CC(C4)C2)C3)cc1` was 13.8 µg/mL (≈ 42.3 µM). As to `Cc1cc(C)cc(NC(=O)COC(=O)c2cc(C)oc2C)c1`, the solubility (kinetic) is < 0.6 µg/mL. For the compound `CC(C)(C)C(=O)Nc1sc2c(c1C(=O)Nc1ccccn1)CCCC2`, the kinetic solubility is < 0.3 µg/mL. Then `NC(=O)c1ccc(NC(=O)COC(=O)CC23CC4CC(CC(Br)(C4)C2)C3)cc1`, with > 67.4 µg/mL; and `O=C(OCC(=O)c1c[nH]c2ccccc12)c1cncc(Br)c1`, with 7.5 µg/mL (≈ 20.9 µM). As to `CCOc1ccccc1NC(=O)CN1C(=O)C(C)SC(C)C1=O` (configuration not stated), the solubility (kinetic) came to 34.5 µg/mL (≈ 103 µM).

`Cc1ccc(Cl)cc1NC(=O)COC(=O)CSc1ccccc1`: the solubility (kinetic) was 7.2 µg/mL (≈ 20.6 µM).

In turn, `CCN1C(=O)C(=Cc2cc(C)n(C3CC3)c2C)C(=O)N(CC)C1=S` gave a kinetic solubility of 2.8 µg/mL (≈ 8.1 µM). Then `COc1ccc(Nc2oc(-c3ccc(OC)cc3)nc2C#N)cc1`, with 0.7 µg/mL (≈ 2.18 µM).

As for `Cc1ccc(N2CC(O)=C(c3ccccc3)C2=N)cc1`, the kinetic solubility is > 39.6 µg/mL. As to `CCC1CCCCN1Cc1c(O)ccc2c(=O)c(-c3ccccc3)coc12` (configuration not stated), the solubility (kinetic) stood at 50.1 µg/mL (≈ 138 µM). Consider `CC(=O)Nc1cccc2c1C(=O)N(c1ccccc1OC(C)=O)C2=O`, for which the solubility (kinetic) is > 50.7 µg/mL. Then `COC(=O)CCSC(=S)N1CCOCC1`, with > 37.4 µg/mL.

For the compound `Cc1ccc(CC2C(=O)N(c3cc(Cl)ccn3)C(=O)C2C)cc1` (configuration not stated), the solubility (kinetic) was > 49.3 µg/mL. The value for `Cc1nnc(SCC(=O)Nc2cccc(N)c2)n1-c1ccccc1` was > 50.9 µg/mL; that for `Cc1ccc(NC(=O)C(=O)NCC2CCCO2)cc1C` (configuration not stated) was > 41.5 µg/mL; that for `CCOc1cccc(NC(=O)/C(C#N)=C/c2cccnc2)c1` was 31.7 µg/mL (≈ 108 µM). The value for `S=c1[nH]c2ccccc2[nH]1` was > 22.5 µg/mL.

Compound `Cc1cccc(NC(=O)COc2cccc3c2CCN(C)C3=O)c1` had a kinetic solubility of 41.9 µg/mL (≈ 129 µM). Then `Cn1c(N)c(C(=O)COC(=O)c2cccc(S(=O)(=O)N3CCOCC3)c2)c(=O)n(C)c1=O`, with 20 µg/mL (≈ 42.9 µM).

In the case of `N#CCc1ccc(OC(=O)c2cnccc2C(F)(F)F)cc1`, the solubility (kinetic) was 13.6 µg/mL (≈ 44.4 µM). The value for `Cc1cccc(-n2c(SCC(N)=O)nnc2-c2ccco2)c1` was > 47.2 µg/mL; that for `COc1cc(NC(=S)NCCO)c(OC)cc1Cl` was > 43.6 µg/mL; that for `CCCCCCCCCCCCCCCC(=O)OC(CC(=O)O)C[N+](C)(C)C.[Cl-]` (configuration not stated) was 4.5 µg/mL. Turning to `O=C(NCc1cccs1)C1CC(=O)N(Cc2ccccc2)C1` (configuration not stated), the kinetic solubility is > 47.2 µg/mL. For `Cc1nnc(SCC(=O)N(C)c2ccccc2)n1-n1cccc1`, the solubility (kinetic) is > 49.1 µg/mL. In the case of `CCOc1ccc(NC(=O)Nc2cccc(C)n2)cc1`, the solubility (kinetic) is < 0.2 µg/mL. Regarding `CSc1ccccc1NC(=O)CN(C)C(=O)COc1cccc2cccnc12`, the solubility (kinetic) was > 59.3 µg/mL. Then `COc1ccc(S(=O)(=O)NC2CCc3ccccc32)cc1OC` (configuration not stated), with > 50 µg/mL; and `CS(=O)(=O)N1CCSC1c1ccc(Br)cc1` (configuration not stated), with 47.8 µg/mL (≈ 148 µM); and `Cc1cccc(-c2noc(CNC(=O)c3ccc4c(c3)OCO4)n2)c1`, with 2.3 µg/mL (≈ 6.82 µM).

Take `Br.CCCCCCCCCCn1ccc(=N)cc1`: the kinetic solubility was > 47.3 µg/mL.

For `Nc1ccccc1-c1nnc(SCC(=O)Nc2ccccc2OC(F)F)[nH]c1=O`, the kinetic solubility was > 62.9 µg/mL.

`O=C(Nc1ccc2ncccc2c1)c1cccc(Br)c1`: the solubility (kinetic) worked out at 2.5 µg/mL (≈ 7.64 µM).

For orientation: kinetic solubility means the concentration staying in solution when a stock, usually in DMSO, is diluted into the medium.
